For data set [1], the target named is cSrc (Homo sapiens, UniProt P12931). Briefly: c-Src enzyme inhibition (FRET). Type of data set: biochemical. The note with it: Table 4a1. The gist of the method:
(§1)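 2 hr RT enzyme + cpd (added solns 4/0.4/0.04/0.004 μg/mL); + FRET peptide (8 μM soln) + ATP soln (c-Src 800 μM, Syk 60 μM), 1 hr; protease development 1 hr; read donor/acceptor emission ratio.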

Data set [2] concerns the target Syk (Homo sapiens, UniProt P43405). Kind of data set: Syk enzyme inhibition (FRET). The class given is biochemical. The note with it: Table 4a1. The gist of the method:
as §1

The target of data set [3] is T1, GSK3α (Homo sapiens, UniProt P49840). Briefly: GSK 3α enzyme inhibition (FRET), Method 1. The conditions noted are these: Table 4a1. Type of data set: biochemical. The gist of the method:
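GSK3α was preincubated with test compound for 2 hr at RT, then a FRET peptide substrate and ATP were added for 1 hr. Protease development for 1 hr cleaved only non-phosphorylated peptide, and phosphorylation was read as the coumarin/fluorescein emission ratio. Concentrations given are those of the added solutions: enzyme 500 ng/mL, peptide 8 μM, ATP 40 μM.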

For data set [4], the system named is TNFα release, d-U937 cells. Briefly: LPS-induced TNFα release in d-U937 cells. Type of data set: cell-based. The conditions noted are these: Homo sapiens, dU937; relative to 10 μg/mL BIRB796; Table 4c1; read-out: LPS Induced Release of Cytokine in d-U937 Cells, TNFα REC50. The gist of the method:
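U937 cells differentiated with PMA (100 ng/mL, 48–72 hr), pre-treated with compound for 2 hr, then stimulated with E. coli LPS (0.1 μg/mL) for 4 hr. Supernatant cytokine measured by sandwich ELISA; inhibition versus vehicle control, REC50 from concentration-response curve.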

Data set [5] has as its system IL-8 release, d-U937 cells. Briefly: LPS-induced IL-8 release in d-U937 cells. The class given is cell-based. The conditions noted are these: Homo sapiens, dU937; Table 4c1; read-out: LPS Induced Release of Cytokine in d-U937 Cells, IL-8 IC50. The gist of the method:
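IL-8 release after a 4 hr challenge with LPS (0.1 μg/mL, E. coli 0111:B4) following a 2 hr compound pretreatment. Cells were human U937 monocytes differentiated to macrophage-type with PMA 100 ng/mL for 48–72 hr. Relative 50% effective concentration derived from concentration–response data.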

Data set [6] concerns ICAM-1 expression, BEAS2B cells. Kind of data set: Poly I:C-induced ICAM-1 expression in BEAS2B cells. The conditions noted are these: Homo sapiens, BEAS-2B; read-out: Poly IC induced ICAM1 in BEAS2B, IC50. The class given is cell-based. The gist of the method: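 BEAS2B human bronchial epithelial cells pre-incubated 2 h with compound, then transfected with poly I:C (1 μg/mL) plus Oligofectamine. After 18 h, cell-surface ICAM-1 read by cell-based ELISA (A450–655), normalised to Crystal Violet cell number (A595); inhibition calculated against vehicle control at each concentration.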

For data set [7], the system named is PBMC cells. Kind of data set: Cell mitosis assay. The class given is cell-based. The note with it: Homo sapiens, read-out: % Inhibition of mitosis in PBMC cells at 5 μg/mL. Here is the method:
PBMCs from healthy subjects are separated from whole blood (Quintiles, London, UK) using a density gradient (Histopaque®-1077, Sigma-Aldrich, Poole, UK). The PBMCs (3 million cells per sample) are subsequently treated with 2% PHA (Sigma-Aldrich, Poole, UK) for 48 hr, followed by a 20 hr exposure to varying concentrations of test compounds. At 2 hr before collection, PBMCs are treated with demecolcine (0.1 μg/mL; Invitrogen, Paisley, UK) to arrest cells in metaphase. […] Fluorescence is observed using an ATTUNE flow cytometer (Invitrogen, Paisley, UK), gating for lymphocytes.

Data set [8] has as its system d-U937 cells. Kind of data set: Cell viability: MTT assay. Type of data set: cell-based, human. The note with it: 1 μg/mL. The gist of the method:
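Differentiated U937 cells exposed to compound at 1 or 10 μg/mL, either 4 h in 5% FCS or 24 h in 10% FCS RPMI1640. MTT then added for 1 h, formazan dissolved in DMSO and read at 550 nm. Viability loss given as % versus 0.5% DMSO vehicle; apparent gains appear negative.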

Data set [9] deals with T1, GSK3α. Briefly: GSK 3α enzyme inhibition (FRET), Method 2. Type of data set: biochemical. The conditions noted are these: Table 4a2, different laboratory.
In data set [10] the test system is IL-8 release, PBMCs. Kind of data set: LPS-induced IL-8 release in PBMC cells. The note with it: Homo sapiens, LPS stimulated, read-out: IC50 Values for Inhibition of Cytokine Release, PBMCs, IL-8. Type of data set: cell-based. As to the method: (b) LPS-Induced TNFα/IL-8 Release in PBMC Cells
Peripheral blood mononuclear cells (PBMCs) from healthy subjects are separated from whole blood using a density gradient (Lymphoprep, Axis-Shield Healthcare). The PBMCs are seeded in 96 well plates and treated with compounds at the desired concentration for 2 hours before addition of 1 ng/ml LPS (Escherichia Coli 0111:B4 from Sigma Aldrich) for 24 hours under normal tissue culture conditions (37° C., 5% CO2). The supernatant is harvested for determination of […] concentrations by sandwich ELISA (Duo-set, R&D systems) and read on the fluorescence microplate reader (Varioskan® Flash, ThermoFisher Scientific).

Sequence of cSrc (P12931 whole entry): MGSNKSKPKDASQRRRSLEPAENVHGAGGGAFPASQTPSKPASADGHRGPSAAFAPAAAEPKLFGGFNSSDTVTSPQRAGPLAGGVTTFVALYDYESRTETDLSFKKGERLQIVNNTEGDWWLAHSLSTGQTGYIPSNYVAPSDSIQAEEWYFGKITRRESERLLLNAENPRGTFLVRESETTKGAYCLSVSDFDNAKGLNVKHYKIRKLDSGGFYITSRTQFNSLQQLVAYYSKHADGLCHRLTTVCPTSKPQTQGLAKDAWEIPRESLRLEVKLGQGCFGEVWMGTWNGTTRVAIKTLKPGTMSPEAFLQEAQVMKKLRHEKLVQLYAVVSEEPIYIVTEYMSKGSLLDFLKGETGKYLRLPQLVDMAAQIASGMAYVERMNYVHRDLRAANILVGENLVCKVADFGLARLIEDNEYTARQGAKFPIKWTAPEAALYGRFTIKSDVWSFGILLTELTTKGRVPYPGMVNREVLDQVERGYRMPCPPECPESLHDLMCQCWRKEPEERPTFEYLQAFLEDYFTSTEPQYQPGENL
T1 sequence (P49840 whole entry): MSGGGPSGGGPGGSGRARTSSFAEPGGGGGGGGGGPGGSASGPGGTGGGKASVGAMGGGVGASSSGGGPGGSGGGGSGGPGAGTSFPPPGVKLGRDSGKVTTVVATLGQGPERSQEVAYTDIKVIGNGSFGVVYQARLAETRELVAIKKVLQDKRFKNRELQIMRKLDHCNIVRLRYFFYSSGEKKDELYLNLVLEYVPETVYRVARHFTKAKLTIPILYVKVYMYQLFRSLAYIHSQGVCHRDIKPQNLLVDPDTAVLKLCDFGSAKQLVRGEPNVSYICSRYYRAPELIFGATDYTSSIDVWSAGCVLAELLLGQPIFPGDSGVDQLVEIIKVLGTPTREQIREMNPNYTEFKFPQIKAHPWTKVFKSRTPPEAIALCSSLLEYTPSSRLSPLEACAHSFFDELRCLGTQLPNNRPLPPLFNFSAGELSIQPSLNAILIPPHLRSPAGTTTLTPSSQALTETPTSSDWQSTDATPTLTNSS

On to `Cc1ccc(-n2nc(C(C)(C)C)cc2NC(=O)Nc2ccc(Oc3ccnc(Nc4cccc(C(N)=O)c4)n3)c3ccccc23)cc1` [Example 2, 3-((4-((4-(3-(3-(tert-Butyl)-1-(p-tolyl)-1H-pyrazol-5-yl)ureido)naphthalen-1-yl)oxy)pyrimidin-2-yl)amino)benzamide], for which the IC50 (as a rule, the concentration at which inhibition is half-maximal) in [1] was found to be 5 nM; in data set [2] it was 250 nM; in data set [3] it was 1260 nM; in data set [5], 4.5 nM; in [6], 1 nM. Further, the EC50 in data set [4] was found to be 0.8 nM. Besides, the inhibition at 5 µg/mL in [7] is 46.5%. For the same compound, in data set [8], the “Cell viability at time point in d-U937 cells, 4 h” value was “−ve (−ve and +ve indicate that the value is below and above respectively, the no significant effect threshold, defined as 30% inhibition at 1 μg/mL at the time point indicated)”. In data set [8], the “Cell viability at time point in d-U937 cells, 24 h” value (“Cell viability at time point … 24 h” for short) is “−ve (−ve and +ve indicate that the value is below and above respectively, the no significant effect threshold, defined as 30% inhibition at 1 μg/mL at the time point indicated)”.

`COc1cc(Nc2nccc(Oc3ccc(NC(=O)Nc4cc(C(C)C)nn4-c4ccc(C)cc4)c4ccccc34)n2)cc(C(=O)NCCN(C)C)c1` [Example 5, N-(2-(Dimethylamino)ethyl)-3-((4-((4-(3-(3-isopropyl-1-(p-tolyl)-1H-pyrazol-5-yl)ureido)naphthalen-1-yl)oxy)pyrimidin-2-yl)amino)-5-methoxybenzamide]: the IC50 came out at 2 nM in [1]; 7 nM in [2]; 1470 nM in [3]; 1.3 nM in data set [5]; 0.2 nM in [6]. In data set [4], the EC50 came out at 0.2 nM. The inhibition at 5 µg/mL in [7] amounted to 28.3%. The “Cell viability at time point in d-U937 cells, 4 h” value in [8] is “−ve (−ve and +ve indicate that the value is below and above respectively, the no significant effect threshold, defined as 30% inhibition at 1 μg/mL at the time point indicated)”. In addition, the “Cell viability at time point … 24 h” value in data set [8] is “−ve (−ve and +ve indicate that the value is below and above respectively, the no significant effect threshold, defined as 30% inhibition at 1 μg/mL at the time point indicated)”.

Turning to `COc1cc(Nc2nccc(Oc3ccc(NC(=O)Nc4cc(C(C)C)nn4-c4ccc(C)cc4)c4ccccc34)n2)cc(C(=O)N2CCOCC2)c1` [Example 12, 1-(3-Isopropyl-1-(p-tolyl)-1H-pyrazol-5-yl)-3-(4-((2-((3-methoxy-5-(morpholine-4-carbonyl)phenyl)amino)pyrimidin-4-yl)oxy)naphthalen-1-yl)urea], the IC50 in data set [1] is 5 nM; in [2], 16 nM; in data set [3], 509 nM; in data set [5] it was 1 nM; in data set [6] it was 2.5 nM. Further, the EC50 in data set [4] came to 0.5 nM. Besides, in [7], the inhibition at 5 µg/mL came out at 27.8%. Also, the “Cell viability at time point in d-U937 cells, 4 h” value in data set [8] was “−ve (−ve and +ve indicate that the value is below and above respectively, the no significant effect threshold, defined as 30% inhibition at 1 μg/mL at the time point indicated)”. The “Cell viability at time point … 24 h” value in data set [8] is “−ve (−ve and +ve indicate that the value is below and above respectively, the no significant effect threshold, defined as 30% inhibition at 1 μg/mL at the time point indicated)”.

For the compound `Cc1ccc(-n2nc(C(C)C)cc2NC(=O)Nc2ccc(Oc3ccnc(Nc4cccc(C(=O)NCCN5CCOCC5)c4)n3)c3ccccc23)cc1` [Example 19, 3-((4-((4-(3-(3-isopropyl-1-(p-tolyl)-1H-pyrazol-5-yl)ureido)naphthalen-1-yl)oxy)pyrimidin-2-yl)amino)-N-(2-morpholinoethyl)benzamide], the IC50 amounted to 4 nM in data set [2], 1240 nM in [3] and 0.2 nM in data set [5]. Moreover, the EC50 in [4] was 0.3 nM. Moreover, the inhibition at 5 µg/mL in [7] amounted to 25.3%. The “Cell viability at time point in d-U937 cells, 4 h” value in [8] is “−ve (−ve and +ve indicate that the value is below and above respectively, the no significant effect threshold, defined as 30% inhibition at 1 μg/mL at the time point indicated)”. For the same compound, the “Cell viability at time point … 24 h” value in data set [8] was “−ve (−ve and +ve indicate that the value is below and above respectively, the no significant effect threshold, defined as 30% inhibition at 1 μg/mL at the time point indicated)”.

Take `COc1cc(C(=O)NCCN2CCOCC2)ccc1Nc1nccc(Oc2ccc(NC(=O)Nc3cc(C(C)C)nn3-c3ccc(C)cc3)c3ccccc23)n1` [Example 36, 4-((4-((4-(3-(3-isopropyl-1-(p-tolyl)-1H-pyrazol-5-yl)ureido)naphthalen-1-yl)oxy)pyrimidin-2-yl)amino)-3-methoxy-N-(2-morpholinoethyl)benzamide]: the IC50 in data set [1] was 8 nM; in data set [2] it was 169 nM; in [3] it was greater than 13200 nM; in data set [9], no less than 13.2 µM; in data set [5] it was 46 nM; in data set [10] it was 30.4 nM. In addition, the IC50 in data set [6] was determined as 82.3 nM. For the same compound, the EC50 in data set [4] was determined as 4.7 nM. Besides, in data set [8], the “Cell viability at time point in d-U937 cells, 4 h” value was “−ve (−ve and +ve indicate that the value is below and above respectively, the no significant effect threshold, defined as 30% inhibition at 1 μg/mL at the time point indicated)”. Further, in [8], the “Cell viability at time point … 24 h” value is “−ve (−ve and +ve indicate that the value is below and above respectively, the no significant effect threshold, defined as 30% inhibition at 1 μg/mL at the time point indicated)”.

On to `CCc1cc(NC(=O)Nc2ccc(Oc3ccnc(Nc4cc(OC)cc(C(=O)NCCN5CCOCC5)c4)n3)c3ccccc23)n(-c2ccc(C)cc2)n1` [Example 49, 3-((4-((4-(3-(3-ethyl-1-(p-tolyl)-1H-pyrazol-5-yl)ureido)naphthalen-1-yl)oxy)pyrimidin-2-yl)amino)-5-methoxy-N-(2-morpholinoethyl)benzamide], for which the IC50 in data set [1] was 1 nM; in data set [2], 57 nM; in data set [3], greater than 13500 nM; in [9], no less than 13.5 µM; in data set [5], 17.2 nM; in [10], 19 nM. The IC50 in [6] is 33 nM. The EC50 in [4] amounted to 9.2 nM. Besides, the “Cell viability at time point in d-U937 cells, 4 h” value in data set [8] was “−ve (−ve and +ve indicate that the value is below and above respectively, the no significant effect threshold, defined as 30% inhibition at 1 μg/mL at the time point indicated)”. Also, the “Cell viability at time point … 24 h” value in [8] was “−ve (−ve and +ve indicate that the value is below and above respectively, the no significant effect threshold, defined as 30% inhibition at 1 μg/mL at the time point indicated)”.

Source of the values: patent US20140057915A1, “KINASE INHIBITORS” (TOPIVERT PHARMA LIMITED, priority 2012, published 2014).
